Laboratory results as given in US7951374B2, “Methods for inhibiting STAT3 signaling in immune cells” (University of South Florida, priority 2004, dated 2011).

Tests used:
[1] = target: T1, Stat3 (Mus musculus, UniProt P42227); assay: EMSA of Stat DNA binding in DC2.4 dendritic cells preincubated with CPA-7 (Stat3); type: cell-based; conditions: DC2.4 cells, 10 μm CPA-7 overnight, then 20 ng/ml IL-6 for 20 minutes, EMSA (FIG. 32)
T1 construct: endogenous in cells; host or cells: mouse DC2.4 dendritic cells
T1 sequence (P42227 whole entry): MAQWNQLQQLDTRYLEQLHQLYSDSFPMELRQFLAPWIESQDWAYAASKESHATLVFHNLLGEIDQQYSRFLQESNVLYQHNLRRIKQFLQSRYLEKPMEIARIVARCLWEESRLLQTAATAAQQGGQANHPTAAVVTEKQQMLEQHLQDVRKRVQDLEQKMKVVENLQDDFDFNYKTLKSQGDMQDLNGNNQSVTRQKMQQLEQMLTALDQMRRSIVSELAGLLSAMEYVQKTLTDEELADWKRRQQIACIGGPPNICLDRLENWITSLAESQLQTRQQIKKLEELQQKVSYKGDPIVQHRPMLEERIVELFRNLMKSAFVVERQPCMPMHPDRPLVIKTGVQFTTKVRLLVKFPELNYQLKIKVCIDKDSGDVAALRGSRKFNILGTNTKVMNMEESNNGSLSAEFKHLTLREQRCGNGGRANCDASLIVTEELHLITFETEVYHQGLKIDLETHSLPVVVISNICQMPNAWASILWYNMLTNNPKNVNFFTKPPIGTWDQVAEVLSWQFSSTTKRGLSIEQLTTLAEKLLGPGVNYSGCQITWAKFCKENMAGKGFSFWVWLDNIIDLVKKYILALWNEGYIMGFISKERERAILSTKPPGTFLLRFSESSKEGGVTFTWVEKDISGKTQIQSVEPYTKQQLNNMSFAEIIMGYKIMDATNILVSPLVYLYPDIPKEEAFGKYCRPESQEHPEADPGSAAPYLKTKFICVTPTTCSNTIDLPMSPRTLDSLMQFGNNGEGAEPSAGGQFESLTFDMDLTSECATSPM
Procedure: Mouse DC2.4 dendritic cells were preincubated with 10 μm CPA-7 overnight and then stimulated for 20 minutes with 20 ng/ml IL-6 (activator of both Stat3 and Stat1), 500 U/ml IFN-γ (activator of […]) or 20 ng/ml GM-CSF (activator of Stat5). After cell lysis, nuclear extracts were prepared and EMSA was conducted to detect DNA binding.

[2] = system: phosphorylated Stat1; assay: Stat1P levels in tumor-infiltrating DCs after intravenous CPA-7, intracellular flow cytometry; type: in vivo, mouse; conditions: 24 hours after intravenous injection (FIG. 33)
Procedure: (§1) Isolation of tumor-infiltrating immune cell subsets and intracellular staining of signaling molecules. Freshly excised tumor tissues were gently minced into small pieces and incubated in 400 U/ml of collagenase D (Roche) solution for 30 minutes at 37° C. Cell suspensions were filtered through a mesh filter for isolation of various immune cell subsets using specific antibodies in combination with EASYSEP magnetic nanoparticles (StemCell Technologies, Canada). Isolated tumor-infiltrating cells were fixed in paraformaldehyde and permeated in methanol before intracellular staining with antibodies to phosphotyrosine-Stat3 and Stat1 (BD Biosciences) or with Foxp3-specific antibody (eBiosciences). Fluorescence data was collected on FACSCalibur (Beckton Dickinson) and analyzed using FlowJo software (Tree Star).
(§2) To further characterize activation of CPA-7 treated immune cells, Phospho-Stat3 (Stat3P) levels in tumor-infiltrating DCs were assessed 24 hours after intravenous injection with vehicle or CPA-7 and compared to splenic CD11c^+ cells from tumor-free Stat3^+/+ mice. […] Also shown in FIG. 33, CPA-7 treated tumor-infiltrating DCs have increased phosphorylated Stat1.

[3] = system: MB49, B16 or C4 tumor cells; assay: Lung tumor nodules after intravenous tumor cell injection and CPA-7 treatment; type: in vivo, mouse; conditions: 5×10^4 MB49, B16 or C4 cells i.v., CPA-7 5 mg/kg twice weekly, day 21 (FIG. 38)
Procedure: Mice were injected intravenously with 5×10^4 MB49, B16 or C4 tumor cells, followed by twice weekly treatment with CPA-7 (5 mg/kg) or vehicle (10% DMSO). Lung colonies were enumerated 21 days later, when control mice became moribund.
To visualize lung tumor nodules, lungs were fixed and bleached in Fekete's solution with or without India ink as a counterstain.

[4] = system: MB49 tumors; assay: Growth of established MB49 tumors in mice treated with CPA-7; type: in vivo, mouse
Procedure: For CPA-7 treatment, MB49 tumors were implanted into male C57BL/6 mice and tumors were allowed to grow until 5-7 mm in diameter. Mice were given intravenous injections of either vehicle (10% DMSO/PBS) or 5 mg/kg CPA-7 once every 3 days.
Mice with MB49 tumors (about 6 mm in diameter) received intravenous injections of either vehicle or CPA-7.
Mice with established MB49 tumors were treated with vehicle or CPA-7 in combination with control or asialo GM1-specific antibody.

[5] = system: YAC-1 cells; assay: 51Cr-release assay of NK cell cytotoxicity from tumor-bearing mice treated with CPA-7; type: in vivo, mouse; conditions: NK cells from tumor-bearing mice treated with CPA-7, YAC-1 targets (FIG. 35)
Procedure: Cytotoxicity assays. NK cell and neutrophil cytotoxicity assays were performed as described by Wei, S. et al., J. Exp. Med. 187, 1753-1765 (1998), which is incorporated herein by reference. Briefly, a 4-hour ^51Cr-release assay was carried out using YAC-1 cells as targets for enriched NK cells or FcγR^+ mouse mastocytoma (P815) cells as targets for enriched neutrophils. Cytotoxicity of CPA-7-treated NK cells from tumor-bearing hosts was assessed using a standard ^51Cr-release assay with YAC-1 cells as targets, as described in Example 1.

[6] = system: MB49 tumor cells; assay: CPA-7-induced tumor-cell apoptosis in vitro by annexin V staining; type: cell-based, mouse; conditions: annexin V staining (FIG. 31)
Procedure: Cell lines. Mouse B16 melanoma, YAC-1 and P815 target cells were purchased from American Type Culture Collection. MB49 bladder carcinoma and C4 mouse melanoma lines were gifts from T. Ratliff (University of Iowa) and J. Fidler (M.D. Anderson Cancer Center), respectively.
Flow cytometry. Single-cell suspensions were prepared by mechanic dispersion of spleen or tumor tissues. 1×10^6 freshly prepared cells suspended in a mixture of PBS, 2% FCS and 0.1% (wt/vol) sodium azide were preincubated with FcγIII/IIR-specific antibody to block nonspecific binding and cells were stained with different combinations of fluorochrome-coupled antibodies to CD11c, I-A^b (MHC class II), CD86, CD11b, Gr1, CD49b, CD3, CD25 or Lag-3, or with annexin V (BD Biosciences). Fluorescence data was collected on FACSCalibur (Beckton Dickinson) and analyzed using FlowJo software (Tree Star).
The effects of blocking Stat3 in immune cells with CPA-7, a small-molecule Stat3 inhibitor, were assessed. For these experiments, both B16 and MB49 tumor cells were used. In contrast to B16, MB49 tumor cells are insensitive to CPA-7-induced tumor-cell apoptosis, as determined by annexin V staining.

[7] = target: T2, Phospho-Stat3 (Stat3P) (Mus musculus, UniProt P42227); assay: Phospho-Stat3 levels in MB49 tumor-infiltrating DCs after intravenous CPA-7, intracellular flow cytometry; type: in vivo; conditions: 24 hours after intravenous injection, compared to vehicle-treated mice (FIG. 33)
T2 construct: from tissue; host or cells: tumor-infiltrating dendritic cells from MB49 tumors of mice
T2 sequence (P42227 whole entry): as above
Procedure: as §1, §2

[8] = Immunohistochemical analysis of colon sections for autoimmune pathology; type: in vivo, mouse; conditions: tumor-bearing Stat3+/+ and Stat3−/− mice, CPA-7 every third day for three weeks (FIG. 30)
Procedure: Transverse colon sections were stained with hematoxylin-eosin and antibodies to CD4, CD8 or CD11b. Staining with rat IgG was used as a negative control.
Colons from tumor free Stat3^−/− mice were evaluated for autoimmune effects at 20 weeks after Stat3 deletion by immunohistochemical analysis. […] In contrast, there was virtually no evidence of systemic autoimmunity at 4 weeks after induced depletion in tumor-bearing Stat3^+/+ and Stat3^−/− mice (FIG. 29).

## [NH2][Pt]([NH2])([Cl])([Cl])([Cl])[N+](=O)[O-] [CPA-7]
[1]
  inhibition of Stat3 DNA binding: inhibits Stat3
[2]
  phosphorylated Stat1 in tumor-infiltrating DCs: increased
[3]
  lung tumor nodules: significantly reduced or completely abrogated
[4]; MB49 tumors about 6 mm in diameter, intravenous CPA-7 5 mg/kg once every 3 days (FIG. 34)
  growth of established tumors: inhibits the growth of established tumors
[4]; MB49 tumors, antibodies to CD4 and CD8 (FIG. 34)
  CPA-7-induced tumor growth inhibition in the absence of CD4+ and CD8+ T cells: abrogated
[4]; established MB49 tumors, asialo GM1-specific antibody (FIG. 36)
  in vivo antitumor effects of CPA-7 treatment with NK depletion: partially abrogates
[5]
  NK cell activity (cytotoxicity): increased
[6]
  sensitivity to CPA-7-induced tumor-cell apoptosis: insensitive
[7]
  phosphorylated Stat3 in tumor-infiltrating DCs: considerably reduced
[8]
  pathologic changes in colons: lack of pathologic changes
